Reference: PMC8325119, “A Novel Class of Functionalized Synthetic Fluoroquinolones with Dual Antiproliferative - Antimicrobial Capacities” (Asian Pacific Journal of Cancer Prevention : APJCP, 2021)
Several values for one entry are separate records, joined by “and”; a condition that tells them apart may be missing. Equal values may be shown once. Read-outs that look alike come from different tables or passages of the source.

Key:
A549 cell line = test: SRB cytotoxicity assay, A549 lung cancer cell line; details: Homo sapiens, A549, 72 h, read-out: Cytotoxicity IC50 value, A549 cell line
Method: (§1) All reagents and chemicals of analytical grade were obtained from Sigma (Dorset, UK); unless stated otherwise. All chemicals, reagents and solvents (of analytical grade) were used directly without further purification. MCF7 cell line ATCC® HTB-22™, T47D cell line ATCC® HTB-133™, K562 cell line ATCC® CCL-243™, Panc1 cell line ATCC® CRL-1469™. A375.S2 cell line ATCC® CRL-1872™, A549 cell line ATCC® CCL-185™, HELA cell line ATCC® CCL-2™ were cultured in Dulbecco’s modified eagle’s medium (DMEM). (DMEM) containing foetal bovine serum (FBS) (Bio Whittaker, Verviers, Belgium), 4-(2-hydroxyethyl)-1-piperazine ethane sulfonic acid (HEPES) Buffer, L-glutamine, gentamicin, penicillin, and streptomycin sulphate (Sigma, St. Luis, MO, USA), trypsin, trypan blue, Ciprofloxacin HCl from Aarti drugs Ltd/India, was a kind gift from Pharma International Company- Amman; Fluconazole from Neopharma, United Arab Emirates, a kind gift from Pharmaceutical Research Unit, Amman; Trypon soya agar (TSA), trypon soya broth (TSB), sabouraud dextrose agar (SDA) were obtained from Liofilchem (Italy) or Oxoid LTD (Basingstoke, England), they were reconstituted and sterilized by autoclave at 121 °C for 15 min.
(§2) The cytotoxicity measurements were determined using Sulforhodamine B (SRB) colorimetric assay for cytotoxicity screening. The mechanism of reduction of cell viability was adopted as described previously (Arabiyat et al., 2016a,b; 2017; Alabsi et al., 2018; Jumah, 2018; AlShahrabi et al., 2020). Human periodontal ligament fibroblasts (PDL) are a primary normal cell culture for verification of selective cytotoxicity. […] Selectivity ratio as indicative factor of the safety of compounds was calculated by dividing IC50 of tested compound on normal fibroblasts by IC50 of the same compound on specific pathological cell line (Hoffman et al., 2011).

A375.S2 cell line = test: SRB cytotoxicity assay, A375.S2 melanoma cell line; details: Homo sapiens, A375-S2, 72 h, read-out: Cytotoxicity IC50 value, A375.S2 cell line
Method: as §1, §2

MCF7 cell line = test: SRB cytotoxicity assay, MCF7 breast cancer cell line; details: Homo sapiens, MCF7, 72 h, read-out: Cytotoxicity IC50 value, MCF7 cell line
Method: as §1, §2

HELA cell line = test: SRB cytotoxicity assay, HELA cervical cancer cell line; details: Homo sapiens, HeLa, 72 h
Method: as §1, §2

K562 cell line = test: SRB cytotoxicity assay, K562 leukaemia cell line; details: Homo sapiens, K562, 72 h
Method: as §1, §2

PANC 1 cell line = test: SRB cytotoxicity assay, PANC 1 pancreatic cancer cell line; details: Homo sapiens, PANC-1, 72 h, read-out: Cytotoxicity IC50 value, PANC 1 cell line
Method: as §1, §2

T47D cell line = test: cells; details: Homo sapiens, T47D, 72 h, read-out: Cytotoxicity IC50 value, T47D cell line
Method: as §1, §2

PDL Fibroblasts = test: SRB cytotoxicity on normal periodontal ligament fibroblasts, selective cytotoxicity; format: cell-based, Human; details: for IC50: Homo sapiens, Fibroblast, normal fibroblasts, SRB, 72 h, mean ± SD; for Selectivity index SI (HELA): IC50 on PDL fibroblasts divided by IC50 on HELA; for Selectivity index SI (K562): IC50 on PDL fibroblasts divided by IC50 on K562
Method: as §2

[1] = read-out: Cytotoxicity IC50 value, HELA cell line, SRB, 72 h, 0.1-200 μg/mL range, mean ± SD, NI = lack of cytotoxicity in range
[2] = read-out: Cytotoxicity IC50 value, K562 cell line, SRB, 72 h, 0.1-200 μg/mL range, mean ± SD, NI = lack of cytotoxicity in range
[3] = 0.1-200 μg/mL range, NI = lack of cytotoxicity in range
[4] = read-out: Cytotoxicity IC50 value, HELA cell line, SRB, 72 h, 0.1-200 μg/mL range, mean ± SD, value in brackets
[5] = read-out: Cytotoxicity IC50 value, K562 cell line, SRB, 72 h, 0.1-200 μg/mL range, mean ± SD, value in brackets

**Q.** Which IC50 (A549 cell line) does the source give for `CCc1ccc(Nc2c(F)cc3c(=O)c(C(=O)O)cn(C4CC4)c3c2[N+](=O)[O-])cc1` [3d, 1-cyclopropyl-6-fluoro-7-(4-ethyl-phenylamino)-8-nitro-4-oxo-1,4-dihydro-quinoline-3-carboxylic acid] here?
**A.** > 200 µg/mL

**Q.** And the IC50 (A375.S2 cell line)?
**A.** 372 µM and 153 µg/mL

**Q.** What about the IC50 (MCF7 cell line) of the same compound?
**A.** > 200 µg/mL

**Q.** And the IC50 (HELA cell line; [1])?
**A.** > 200 µg/mL

**Q.** And the IC50 (K562 cell line; [2])?
**A.** > 200 µg/mL

**Q.** And the IC50 (PANC 1 cell line)?
**A.** > 200 µg/mL

**Q.** What about the IC50 (T47D cell line) of the same compound?
**A.** > 200 µg/mL

**Q.** What about the IC50 (PDL Fibroblasts; [3]) of the same compound?
**A.** 728 ± 119 µM

**Q.** And the IC50 (PDL Fibroblasts; value in brackets)?
**A.** 300 µg/mL

**Q.** What about the “Selectivity index SI (A375.S2)” value (PDL Fibroblasts; IC50 on PDL fibroblasts divided by IC50 on A375.S2) of the same compound?
**A.** 1.95

**Q.** Which results are given for `CCCCCCc1ccc(-n2nnc3c4c(cc(F)c32)c(=O)c(C(=O)O)cn4C2CC2)cc1` [5f, 9-cyclopropyl-4-fluoro-3-(4-hexyl-phenyl)-6-oxo-6,9-dihydro-3H-[1,2,3] triazolo[4,5-h]quinoline-7-carboxylic acid]?
**A.** IC50 (A549 cell line): 362 µM and 162 µg/mL; IC50 (A375.S2 cell line): 508 µM and 227 µg/mL; IC50 (MCF7 cell line): 181 µM and 81.1 µg/mL; IC50 (HELA cell line; [4]): 1.61 µg/mL; IC50 (HELA cell line; [1]): 3.59 ± 0.05 µM; IC50 (K562 cell line; [5]): 14.1 µg/mL; IC50 (K562 cell line; [2]): 31.5 ± 2.92 µM; IC50 (PANC 1 cell line): 119 µM and 53.4 µg/mL; IC50 (T47D cell line): 232 µM and 104 µg/mL; IC50 (PDL Fibroblasts; [3]): 474 ± 33.5 µM; IC50 (PDL Fibroblasts; value in brackets): 212 µg/mL; Selectivity index SI (HELA) (PDL Fibroblasts): 132.15

**Q.** How did the IC50 (A549 cell line) turn out when `O=C(O)c1cn(C2CC2)c2c(cc(F)c3c2nnn3C2CCCCC2)c1=O` [9a, 3-cyclohexyl-9-cyclopropyl-4-fluoro-6-oxo-6,9-dihydro-3H-[1,2, and 3] triazolo [4,5-h] quinoline-7-carboxylic acid] was run?
**A.** 223 µM and 82.3 µg/mL

**Q.** And the IC50 (A375.S2 cell line)?
**A.** 215 µM and 79.6 µg/mL

**Q.** And the IC50 (MCF7 cell line)?
**A.** 133 µM and 49.2 µg/mL

**Q.** What about the IC50 (HELA cell line; [4]) of the same compound?
**A.** 27.6 µg/mL

**Q.** And the IC50 (HELA cell line; [1])?
**A.** 74.8 ± 1.67 µM

**Q.** And the IC50 (K562 cell line; [2])?
**A.** > 200 µg/mL

**Q.** And the IC50 (PANC 1 cell line)?
**A.** 162 µM and 60 µg/mL

**Q.** And the IC50 (T47D cell line)?
**A.** 299 µM and 110 µg/mL

**Q.** And the IC50 (PDL Fibroblasts; [3])?
**A.** 252 ± 11.6 µM

**Q.** And the IC50 (PDL Fibroblasts; value in brackets)?
**A.** 93.1 µg/mL

**Q.** What about the “Selectivity index SI (HELA)” value (PDL Fibroblasts) of the same compound?
**A.** 3.36

**Q.** What does the source list for `CCn1cc(C(=O)O)c(=O)c2cc(F)c(Nc3cccc(OC)c3)c(N)c21` [12b, 8-amino-1-ethyl-6-fluoro-7-(3-methoxy-phenylamino)-4-oxo-1,4-dihydro-quinoline-3-carboxylic acid]?
**A.** IC50 (A549 cell line): 163 µM and 60.4 µg/mL; IC50 (A375.S2 cell line): 112 µM and 41.7 µg/mL; IC50 (MCF7 cell line): 492 µM and 183 µg/mL; IC50 (HELA cell line; [4]): 83.6 µg/mL; IC50 (HELA cell line; [1]): 225 ± 34 µM; IC50 (K562 cell line; [5]): 13.2 µg/mL; IC50 (K562 cell line; [2]): 35.4 ± 3.8 µM; IC50 (PANC 1 cell line): 35.4 µM and 13.2 µg/mL; IC50 (T47D cell line): 169 µM and 62.7 µg/mL; IC50 (PDL Fibroblasts; [3]): 150 ± 6.73 µM; IC50 (PDL Fibroblasts; value in brackets): 55.5 µg/mL; Selectivity index SI (K562) (PDL Fibroblasts): 4.22

**Q.** Which results are given for `CCCCCCc1ccc(Nc2c(F)cc3c(=O)c(C(=O)O)cn(C4CC4)c3c2N)cc1` [4f, 8-Amino-1-cyclopropyl-6-fluoro-7-(4-hexyl-phenylamino)-4-oxo-1,4-dihydro-quinoline-3-carboxylic acid]?
**A.** IC50 (A549 cell line): 204 µM and 89.5 µg/mL; IC50 (A375.S2 cell line): 244 µM and 107 µg/mL; IC50 (MCF7 cell line): 300 nM and 0.13 µg/mL; IC50 (HELA cell line; [4]): 13.4 µg/mL; IC50 (HELA cell line; [1]): 30.7 ± 3.79 µM; IC50 (K562 cell line; [5]): 30.4 µg/mL; IC50 (K562 cell line; [2]): 69.4 ± 6.64 µM; IC50 (PANC 1 cell line): 110 nM and 0.05 µg/mL; IC50 (T47D cell line): 308 µM and 135 µg/mL; IC50 (PDL Fibroblasts; [3]): 352 ± 7.36 µM; IC50 (PDL Fibroblasts; value in brackets): 154 µg/mL; Selectivity index SI (PANC 1) (PDL Fibroblasts; IC50 on PDL fibroblasts divided by IC50 on PANC 1): 3199.45

**Q.** With `COc1ccc(-n2nnc3c4c(cc(F)c32)c(=O)c(C(=O)O)cn4C2CC2)cc1` [5c, 9-cyclopropyl-4-fluoro-3-(4-methoxy-phenyl)-6-oxo-6,9-dihydro-3H-[1,2, and 3] triazolo [4,5-h] quinoline-7-carboxylic acid] as the compound, how does the IC50 (A549 cell line) read?
**A.** 427 µM and 168 µg/mL

**Q.** What about the IC50 (A375.S2 cell line) of the same compound?
**A.** 453 µM and 178 µg/mL

**Q.** What about the IC50 (MCF7 cell line) of the same compound?
**A.** > 200 µg/mL

**Q.** And the IC50 (HELA cell line; [4])?
**A.** 179 µg/mL

**Q.** And the IC50 (HELA cell line; [1])?
**A.** 454 ± 19.1 µM

**Q.** And the IC50 (K562 cell line; [5])?
**A.** 97.4 µg/mL

**Q.** And the IC50 (K562 cell line; [2])?
**A.** 248 ± 44.6 µM

**Q.** And the IC50 (PANC 1 cell line)?
**A.** > 200 µg/mL

**Q.** What about the IC50 (T47D cell line) of the same compound?
**A.** 398 µM and 156 µg/mL

**Q.** What about the IC50 (PDL Fibroblasts; [3]) of the same compound?
**A.** 496 ± 52.5 µM

**Q.** What about the IC50 (PDL Fibroblasts; value in brackets) of the same compound?
**A.** 195 µg/mL

**Q.** And the “Selectivity index SI (K562)” value (PDL Fibroblasts)?
**A.** 2.00
